Reference: patent publication US20110009628A1, “Compounds and Compositions for Modulating Lipid Levels and Methods of Preparing Same” (priority 2009, published 2011)
Where a name gives a salt, the structure may show the parent alone.

How the values were obtained:
[1] = tested on: LDLR mRNA expression in HepG2 cells; experiment: LDLR mRNA expression in HepG2 cells, Compounds 162 and 163, real-time RT-PCR (Example 13); type: cell-based, human; conditions: FIGS. 6A and 6B
Protocol: In FIG. 6A HepG2 cells were exposed to Compounds 162 and 163 at the indicated concentrations (x-axis) for 24 h and plotted against normalized LDLR mRNA levels (fold of control in absence of compound). In FIG. 6B, HepG2 cells were treated with 20 μM of each compound for the indicted times (x-axis) and plotted against normalized LDLR mRNA levels (fold of control at 24 h).
The time- and dose-dependent effects of the enantiomers of Compound 127 (Compounds 162 and 163) on LDLR mRNA expression were examined using quantitative real-time RT-PCR assays (FIGS. 6A and 6B). HepG2 cells were treated with Compound 162 and Compound 163 at indicated concentrations for various times. Total RNA was isolated and […] was used to generate cDNA in a reaction containing random primers and M-MLV at 37° C. for 1 h in a volume of 25 μL. Real-time PCR was performed on the cDNA using MCEP REALPLEX 2 SYSTEM (Eppendorf) and Universal MasterMix (Applied Biosystems). Human LDLR and GAPDH Pre-Developed TaqMan Assay Reagents (Applied Biosystems) were used to assess the levels of mRNA expressions in HepG2. The levels of LDLR mRNA were normalized to that of GAPDH. Each RNA samples was assayed in triplicate. The fold activity was calculated by dividing mRNA abundance in compound treated cells with that of control.

in vivo = experiment: in vivo; design: species or system Golden Syrian hamsters; conditions: male, Golden Syrian, hamster, po
Protocol: For testing the efficacy of Compound 141 (phosphate salt of Compound 127) or its enantiomers (Compound 162/Compound 163) the following suspension formulation procedure was developed to make 100 ml of Compound 141 in suspension at 10 mg/ml concentration in 0.1 M tartaric buffer pH. 3 containing 0.5% hydroxypropylcellulose H-type (HPC-H):
Step 1: 1.50 g L-(+)-tartaric acid was dissolved in 100 mL water to prepare a tartaric acid solution. The solution was adjusted to pH 3 with 1.2 mL 5N NaOH solution to provide the tartaric acid buffer (100 mM). Step 2: 0.5 g HPC-H powder was added to 10 mL tartaric acid buffer (100 mM) at 50° C. The slurry was stirred for 30 minutes, and then diluted with 90 mL tartaric acid buffer (100 mM) at room temperature to provide 0.5% HPC-H. Agitation was continued until all particles were dissolved and the solution was completely free of gels. Step 3: 1.20 g Compound 141 (or Compound 162 or Compound 163) and 1.20 g mannitol were mixed and ground through a 120 mesh sieve, then the mixture was ground slightly again. The mixture was dispersed in 100 mL 0.5% HPC-H-L-(+)-Tartaric acid buffer (pH=3), then stirred until the drug dispersed evenly. The final pH was 2.6. All the above procedures were completed at room temperature (˜25° C.). The final concentration of Compound 141 was 10 mg/ml after correction of the salt weight.
The pharmacokinetic profile and bioavailability of Compound 141 (phosphate salt of Compound 127) in male Wistar rats following single intravenous (iv) and oral administration (p.o.) were measured according to the procedures of Example 4 and are summarized in Table 11. The pharmacokinetic profile of Compound 162 in male Golden Syrian masters following oral administration (pox) is summarized in Table 12.

Compound: COc1cc2c(cc1OC)C1Cc3ccc(OC)c(OS(=O)(=O)c4cccc(F)c4)c3CN1CC2 (single isomer, unassigned) [Compound 162, 2,3,10-Trimethoxy-5,6,7,8,13,13a-hexahydroisoquinolino[2,1-b]isoquinolin-9-yl 3-fluorobenzenesulfonate phosphate Salt (Enantiomer having positive optical rotation)]
- LDLR mRNA expression [1]: upregulate LDLR mRNA expression
- LDLR mRNA expression, comparison of the enantiomers [1]: more active than Compound 163
- AUC(0-inf) (in vivo; 15 mg/kg): 914 ng·h/mL
- AUC(0-t) (in vivo; 15 mg/kg): 889 ng·h/mL
- Cmax (in vivo; 15 mg/kg): 195 ng/mL
- MRT inf (in vivo; 15 mg/kg): 6.95 h
- MRT last (in vivo; 15 mg/kg): 6.06 h
- Tmax (in vivo; 15 mg/kg): 0.5 h
- t1/2z (in vivo; 15 mg/kg): 5.21 h
- AUC(0-inf) (in vivo; 30 mg/kg): 2110 ng·h/mL
- AUC(0-t) (in vivo; 30 mg/kg): 2020 ng·h/mL
- Cmax (in vivo; 30 mg/kg): 848 ng/mL
- MRT inf (in vivo; 30 mg/kg): 5.17 h
- MRT last (in vivo; 30 mg/kg): 3.81 h
- Tmax (in vivo; 30 mg/kg): 0.5 h
- t1/2z (in vivo; 30 mg/kg): 6.85 h
